The subject of data set [1] is ER (non-selective) (h). Nature of the data set: Cerep binding, agonist radioligand. Also on record: species or system human. The settings on record: 5 µM.
Data set [2] addresses T1, GABA transaminase (Rattus norvegicus, UniProt P50554).
T1 construct: Eurofins Pharma Discovery Services (CEREP diversity panel, outsourced assay)
Nature of the data set: Cerep enzyme and cell-based assays. Format: biochemical. Particulars: read-out: % Inhibition of Control Values.

The target in data set [3] is T2, N neuronal alpha 4beta 2 (h) (Homo sapiens, UniProt P17787+P43681).
T2 construct: purchased Eurofins Pharma Discovery Services (CEREP diversity panel)
Nature of the data set: Cerep binding, agonist radioligand. Particulars: read-out: % Inhibition of Control Specific Binding.

Data set [4] relates to ATPase (Na+/K+). Nature of the data set: Cerep enzyme and cell-based assays. Format: biochemical. Particulars: 5 µM.
The nature of data set [5]: in vivo. The settings on record: female, NMRI, mouse, 3 mg/kg.
Description: (§10) Determination of pharmacokinetic properties in vivo
50% physiological saline / 40% water.
(§11) The regression equation of the calibration curve was used to calculate plasma concentrations. Pharmacokinetic parameters were calculated using the PKSolver
(§12) Animal experiments and care were conducted at Synovo GmbH (Tübingen, Germany) in accordance with the guidelines of institutional authorities and approved
The conditions of data set [6]: mouse, in vivo.
Description: as §10
50% physiological saline / 40% water.
as §11, §12
Data set [7] has as its system Erk phosphorylation. Nature of the data set: western blot, Erk phosphorylation in PANC-1. For orientation: Immunoblotting shows a protein as a band on a membrane.
Description: (§13) To examine whether PDEδ inhibition by Deltarasin and Deltazinone 1 downregulates the signal transduction via these pathways, we examined the phosphorylation of extracellular signal regulated kinase (Erk) and S6 Ribosomal Protein (S6P) in the oncogenic KRas-dependent Panc-Tu-1 and KRas-independent PANC-1 cells. […] Cells were lysed with RIPA-buffer (20 mM Tris pH 7.5, 150 mM NaCl, 0.5 mM Na2 EDTA, 1 % sodium deoxycholate, 0.1% sodium dodecyl sulfate, 1% IGEPAL supplemented with Complete Mini EDTA-free protease inhibitor (Roche Applied Science) and 1% phosphatase inhibitor cocktail 2 and 3 (P5726 and P0044, Sigma Aldrich), scraped off after 5 min on ice and centrifuged at 14,000g for 20 min at 4 °C. SDS–polyacrylamide gel electrophoresis was carried out with 10–25 μg of whole-cell lysate from each sample. The gels were blotted onto polyvinylidene difluoride membrane (Millipore) and blocked for 1 h at room temperature. […] Blots were scanned on a LI-COR Odyssey imaging system.
(§14) Western blots were quantified using ImageJ. The background of the blots was subtracted by applying the rolling ball subtraction with a radius of 50 pixels. Afterwards the integrated intensity of the bands was measured.
Data set [8] concerns the target T3, phosphatase 1B (h) (PTP1B) (Homo sapiens, UniProt P18031).
T3 construct: Eurofins Pharma Discovery Services (CEREP diversity panel, outsourced assay)
Description: Cerep enzyme and cell-based assays. Format: biochemical. Particulars: read-out: % Inhibition of Control Values.

In data set [9] the target is T4, PPARgamma (h) (Homo sapiens, UniProt P37231).
T4 construct: purchased Eurofins Pharma Discovery Services (CEREP diversity panel)
Nature of the data set: Cerep binding, agonist radioligand. The settings on record: read-out: % Inhibition of Control Specific Binding.

Data set [10] deals with MIA PaCa-2 cells. Nature of the data set: RTCA growth profile. Particulars: MIA PaCa-2, doses higher than 3 μM. Format: cell-based, human. The method, then: (§1) RTCA was performed using 16-well E-plates on the Dual Plate xCELLigence instrument (Roche Applied Science, Indianapolis, IN). This system measures a dimensionless parameter called cell index, which evaluates the ionic environment at an electrode/solution interface and integrates information on cell number. Depending on the cell line 5 × 10^3–1 × 10^4 cells were plated in each well of the 16-well plates in 200 μl of cell culture medium. After seeding, cells were allowed to settle for 30 min at room temperature before being inserted into the xCELLigence instrument in a humidified incubator at 37 °C with 10% CO2. For RTCA experiments assaying cells stably expressing the inducible shRNA transgene, cells were seeded onto the E-plates in medium supplemented with 200 ng ml^−1 doxycycline. […] The small-molecule inhibitors were added at indicated time points and in the indicated concentrations. […] All assays were performed in duplicates. The cell index was normalized to 1 at the time point of drug administration.

The subject of data set [11] is Capan-1 cells. Description: RTCA growth profile. Format: cell-based, human. The settings on record: Capan-1, doses up to 24 μM. On the procedure:
as §1

Data set [12] concerns Panc-Tu-I cells. Nature of the data set: RTCA growth profile. Format: cell-based, human. The method, then: as §1
Data set [13] deals with Erk phosphorylation. Nature of the data set: western blot, Erk phosphorylation in Panc-Tu-I.
Description: as §13, §14
The target of data set [14] is T5, HDAC6 (h) (Homo sapiens, UniProt Q9UBN7).
T5 construct: Eurofins Pharma Discovery Services (CEREP diversity panel, outsourced assay)
Description: Cerep enzyme and cell-based assays. Format: biochemical. Particulars: read-out: % Inhibition of Control Values.

In data set [15] the target is T6, tyrosine hydroxylase (Rattus norvegicus, UniProt P04177).
T6 construct: Eurofins Pharma Discovery Services (CEREP diversity panel, outsourced assay)
Nature of the data set: Cerep enzyme and cell-based assays. Format: biochemical. Particulars: read-out: % Inhibition of Control Values.

Data set [16] has as its system Panc-Tu-I. Nature of the data set: CellTiter-Glo cell viability. Format: cell-based, human. On the procedure: (§2) Biochemical and Pharmacological Assays
(§3) Determination of cell viability using CellTiter-Glo®
(§4) Cells were seeded on day 1 at 500 cells per well to assure assay linearity and optimal signal intensity. After incubation for 24h in humidified incubator at 37°C, 5% CO2, compounds / DMSO were added at different concentrations. Cells were further incubated for 72 h at 37°C and 5% CO2. Cells treated with the compound vehicle (DMSO) […].
(§5) At day 5 the CellTiter-Glo® Reagent was prepared according to the instructions of the manufacturer (Promega): The Reagent was mixed 1:1 with cell culture medium.
(§6) Thereon, mixture and assay plates were equilibrated at room temperature for 20 min.
(§7) Equal volumes of the reagent-medium-mixture were added to the volume of culture medium present in each well. The plates were mixed at 200 rpm for 2 minutes on an orbital shaker and afterwards incubated at room temperature for 10 minutes.
(§8) Following incubation the luminescence was recorded on a Victor microplate reader (Perkin Elmer) using a 200 ms integration time. The data was analyzed with Excel using the XLFIT Plugin (dose response Fit 205) for IC50-determination.
(§9) As quality control the Z´ -factor was calculated from 16 positive and negative control values. Only assay results showing a Z´ -factor ≥ 0.5 were used for further analysis.
In general terms: ATP-based viability assays read luminescence as a measure of living cells.

For data set [17], the system named is PANC-1. Description: CellTiter-Glo cell viability. Format: cell-based, human. Particulars: PANC-1, CellTiter-Glo, n = 10. The method, then:
as §2, §3, §4, §5, §6, §7, §8, §9

Data set [18] concerns the target T7, MAO-B (h) recombinant enzyme (Homo sapiens, UniProt P27338).
T7 construct: Eurofins Pharma Discovery Services (CEREP diversity panel, outsourced assay)
Description: Cerep enzyme and cell-based assays. Format: biochemical. The settings on record: read-out: % Inhibition of Control Values.

For data set [19], the target named is T8, MAO-A (h) (Homo sapiens, UniProt P21397).
T8 construct: Eurofins Pharma Discovery Services (CEREP diversity panel, outsourced assay)
Description: Cerep enzyme and cell-based assays. Format: biochemical. Particulars: read-out: % Inhibition of Control Values.

For data set [20], the target named is T9, acetylcholinesterase (h) (Homo sapiens, UniProt P22303).
T9 construct: Eurofins Pharma Discovery Services (CEREP diversity panel, outsourced assay)
Description: Cerep enzyme and cell-based assays. Format: biochemical. Particulars: read-out: % Inhibition of Control Values.

Data set [21] deals with T10, sirtuin 1 (h) (inhibitor effect) (Homo sapiens, UniProt Q96EB6).
T10 construct: Eurofins Pharma Discovery Services (CEREP diversity panel, outsourced assay)
Description: Cerep enzyme and cell-based assays. Format: biochemical. Particulars: read-out: % Inhibition of Control Values.

The target of data set [22] is T11, HDAC11 (h) (Homo sapiens, UniProt Q96DB2).
T11 construct: Eurofins Pharma Discovery Services (CEREP diversity panel, outsourced assay)
Nature of the data set: Cerep enzyme and cell-based assays. Format: biochemical. The settings on record: read-out: % Inhibition of Control Values.

Data set [23] has as its target T12, interaction between mCitrine-KRas and mCherry-PDEδ (Homo sapiens, UniProt O43924).
T12 construct: expressed in transfected cells; host or cells: MDCK cells, transient transfection
Description: FLIM-FRET, mCitrine-KRas/mCherry-PDEδ in MDCK cells after Bryostatin. Format: cell-based, canine. The settings on record: 5 μM inhibitor after 1 μM Bryostatin-1, MDCK cells.
Description: To measure whether both inhibitors also affect the interaction of KRas with PDEδ, MDCK cells were transiently transfected with mCitrine-KRas and mCherry-PDEδ. […] To increase the fraction of KRas that interacts with PDEδ, the Protein Kinase C (PKC) activator Bryostatin, which induces serine (S181) phosphorylation on KRas[17], was applied, resulting in a reduced electrostatic interaction with the PM and increased cytosolic pool of mCitrine-KRas.
Fluorescence lifetime images were acquired using a confocal laser-scanning microscope (FV1000, Olympus) equipped with a time-correlated single-photon counting module (LSM Upgrade Kit, Picoquant). For detection of the donor (mCitrine), the sample was excited using a 470-nm diode laser (LDH 470, Picoquant) at a 36-MHz repetition frequency. […] Photons were detected using a single-photon counting avalanche photodiode (PDM Series, MPD) and timed using a single-photon counting module (PicoHarp 300, Picoquant).
Intensity thresholds were applied to segment the cells from the background fluorescence. Data were analysed via global analysis[23] to obtain images of the molar fraction (α) of interacting mCitrine-Rheb with mCherry-PDEδ. […] Dose–response relationships were determined by plotting obtained α per addition, using equation:

The target in data set [24] is T13, CENP-E (h) (Homo sapiens, UniProt Q02224).
T13 construct: Eurofins Pharma Discovery Services (CEREP diversity panel, outsourced assay)
Description: Cerep enzyme and cell-based assays. Format: biochemical. The settings on record: read-out: % Inhibition of Control Values.

The mark [25] stands for this setting: 1 h, 5 μM Deltarasin or 20 μM Deltazinone 1, 5 min EGF.
Setting [26] is: Homo sapiens, 72 h, read-out: IC50 anti-proliferative activity.

T2 sequence (P43681 29-627 limits assumed): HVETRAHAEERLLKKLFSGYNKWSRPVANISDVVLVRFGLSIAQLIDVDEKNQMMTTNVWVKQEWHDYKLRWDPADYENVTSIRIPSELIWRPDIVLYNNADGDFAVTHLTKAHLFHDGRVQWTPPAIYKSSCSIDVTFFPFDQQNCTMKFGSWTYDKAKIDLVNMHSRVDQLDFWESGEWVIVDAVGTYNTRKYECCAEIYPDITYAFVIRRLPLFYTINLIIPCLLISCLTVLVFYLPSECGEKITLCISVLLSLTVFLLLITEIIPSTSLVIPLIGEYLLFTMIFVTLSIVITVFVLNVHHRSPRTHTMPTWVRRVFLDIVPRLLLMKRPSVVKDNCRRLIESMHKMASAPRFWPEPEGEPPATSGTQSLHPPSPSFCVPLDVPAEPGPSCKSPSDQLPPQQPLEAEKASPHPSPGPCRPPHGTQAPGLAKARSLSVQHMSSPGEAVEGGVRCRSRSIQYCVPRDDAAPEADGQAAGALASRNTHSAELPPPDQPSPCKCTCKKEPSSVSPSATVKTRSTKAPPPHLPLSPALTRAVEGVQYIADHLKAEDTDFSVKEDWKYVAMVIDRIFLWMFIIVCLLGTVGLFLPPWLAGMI
T2 sequence (P17787 26-502): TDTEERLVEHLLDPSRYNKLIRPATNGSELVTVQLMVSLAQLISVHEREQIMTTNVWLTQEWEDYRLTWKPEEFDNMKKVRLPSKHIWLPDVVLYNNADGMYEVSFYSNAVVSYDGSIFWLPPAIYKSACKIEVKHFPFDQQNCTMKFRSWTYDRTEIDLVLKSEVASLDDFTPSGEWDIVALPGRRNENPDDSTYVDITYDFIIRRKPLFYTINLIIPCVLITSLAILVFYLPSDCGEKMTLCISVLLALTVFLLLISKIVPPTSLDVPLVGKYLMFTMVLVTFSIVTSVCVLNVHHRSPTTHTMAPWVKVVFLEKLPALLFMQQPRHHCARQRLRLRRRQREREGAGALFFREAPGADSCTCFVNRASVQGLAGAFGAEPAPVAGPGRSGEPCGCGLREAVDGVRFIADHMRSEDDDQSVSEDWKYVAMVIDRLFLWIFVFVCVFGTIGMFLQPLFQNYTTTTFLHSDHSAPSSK
T4 sequence (P37231 whole entry): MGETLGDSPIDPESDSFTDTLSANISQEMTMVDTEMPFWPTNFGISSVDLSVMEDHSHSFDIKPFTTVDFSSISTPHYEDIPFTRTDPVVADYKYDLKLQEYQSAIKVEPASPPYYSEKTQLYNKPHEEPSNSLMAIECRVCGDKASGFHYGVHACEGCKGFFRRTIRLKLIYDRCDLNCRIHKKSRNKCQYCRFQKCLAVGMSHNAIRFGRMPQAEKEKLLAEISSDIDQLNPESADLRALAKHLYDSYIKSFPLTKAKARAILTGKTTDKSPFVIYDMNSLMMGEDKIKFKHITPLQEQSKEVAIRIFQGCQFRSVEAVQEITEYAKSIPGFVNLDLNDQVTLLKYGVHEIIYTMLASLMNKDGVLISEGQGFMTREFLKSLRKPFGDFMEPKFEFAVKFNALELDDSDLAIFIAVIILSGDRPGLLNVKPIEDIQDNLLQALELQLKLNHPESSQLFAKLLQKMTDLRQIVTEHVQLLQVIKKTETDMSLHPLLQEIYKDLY
T9 sequence (P22303 32-614): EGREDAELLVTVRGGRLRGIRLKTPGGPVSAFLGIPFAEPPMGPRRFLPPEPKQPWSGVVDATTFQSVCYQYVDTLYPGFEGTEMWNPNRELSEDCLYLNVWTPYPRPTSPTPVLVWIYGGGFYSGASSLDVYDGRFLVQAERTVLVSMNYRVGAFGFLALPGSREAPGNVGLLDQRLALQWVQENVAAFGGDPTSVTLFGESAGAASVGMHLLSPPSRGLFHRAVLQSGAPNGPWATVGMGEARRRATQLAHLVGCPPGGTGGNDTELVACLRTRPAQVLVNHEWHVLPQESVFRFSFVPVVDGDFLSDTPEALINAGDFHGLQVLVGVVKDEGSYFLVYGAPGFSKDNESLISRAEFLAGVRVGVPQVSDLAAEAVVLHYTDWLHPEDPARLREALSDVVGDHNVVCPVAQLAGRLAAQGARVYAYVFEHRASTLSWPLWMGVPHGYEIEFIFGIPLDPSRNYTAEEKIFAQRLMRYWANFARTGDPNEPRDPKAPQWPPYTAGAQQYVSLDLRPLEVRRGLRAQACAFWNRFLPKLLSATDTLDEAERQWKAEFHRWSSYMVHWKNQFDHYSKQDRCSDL
T13 sequence (Q02224 whole entry): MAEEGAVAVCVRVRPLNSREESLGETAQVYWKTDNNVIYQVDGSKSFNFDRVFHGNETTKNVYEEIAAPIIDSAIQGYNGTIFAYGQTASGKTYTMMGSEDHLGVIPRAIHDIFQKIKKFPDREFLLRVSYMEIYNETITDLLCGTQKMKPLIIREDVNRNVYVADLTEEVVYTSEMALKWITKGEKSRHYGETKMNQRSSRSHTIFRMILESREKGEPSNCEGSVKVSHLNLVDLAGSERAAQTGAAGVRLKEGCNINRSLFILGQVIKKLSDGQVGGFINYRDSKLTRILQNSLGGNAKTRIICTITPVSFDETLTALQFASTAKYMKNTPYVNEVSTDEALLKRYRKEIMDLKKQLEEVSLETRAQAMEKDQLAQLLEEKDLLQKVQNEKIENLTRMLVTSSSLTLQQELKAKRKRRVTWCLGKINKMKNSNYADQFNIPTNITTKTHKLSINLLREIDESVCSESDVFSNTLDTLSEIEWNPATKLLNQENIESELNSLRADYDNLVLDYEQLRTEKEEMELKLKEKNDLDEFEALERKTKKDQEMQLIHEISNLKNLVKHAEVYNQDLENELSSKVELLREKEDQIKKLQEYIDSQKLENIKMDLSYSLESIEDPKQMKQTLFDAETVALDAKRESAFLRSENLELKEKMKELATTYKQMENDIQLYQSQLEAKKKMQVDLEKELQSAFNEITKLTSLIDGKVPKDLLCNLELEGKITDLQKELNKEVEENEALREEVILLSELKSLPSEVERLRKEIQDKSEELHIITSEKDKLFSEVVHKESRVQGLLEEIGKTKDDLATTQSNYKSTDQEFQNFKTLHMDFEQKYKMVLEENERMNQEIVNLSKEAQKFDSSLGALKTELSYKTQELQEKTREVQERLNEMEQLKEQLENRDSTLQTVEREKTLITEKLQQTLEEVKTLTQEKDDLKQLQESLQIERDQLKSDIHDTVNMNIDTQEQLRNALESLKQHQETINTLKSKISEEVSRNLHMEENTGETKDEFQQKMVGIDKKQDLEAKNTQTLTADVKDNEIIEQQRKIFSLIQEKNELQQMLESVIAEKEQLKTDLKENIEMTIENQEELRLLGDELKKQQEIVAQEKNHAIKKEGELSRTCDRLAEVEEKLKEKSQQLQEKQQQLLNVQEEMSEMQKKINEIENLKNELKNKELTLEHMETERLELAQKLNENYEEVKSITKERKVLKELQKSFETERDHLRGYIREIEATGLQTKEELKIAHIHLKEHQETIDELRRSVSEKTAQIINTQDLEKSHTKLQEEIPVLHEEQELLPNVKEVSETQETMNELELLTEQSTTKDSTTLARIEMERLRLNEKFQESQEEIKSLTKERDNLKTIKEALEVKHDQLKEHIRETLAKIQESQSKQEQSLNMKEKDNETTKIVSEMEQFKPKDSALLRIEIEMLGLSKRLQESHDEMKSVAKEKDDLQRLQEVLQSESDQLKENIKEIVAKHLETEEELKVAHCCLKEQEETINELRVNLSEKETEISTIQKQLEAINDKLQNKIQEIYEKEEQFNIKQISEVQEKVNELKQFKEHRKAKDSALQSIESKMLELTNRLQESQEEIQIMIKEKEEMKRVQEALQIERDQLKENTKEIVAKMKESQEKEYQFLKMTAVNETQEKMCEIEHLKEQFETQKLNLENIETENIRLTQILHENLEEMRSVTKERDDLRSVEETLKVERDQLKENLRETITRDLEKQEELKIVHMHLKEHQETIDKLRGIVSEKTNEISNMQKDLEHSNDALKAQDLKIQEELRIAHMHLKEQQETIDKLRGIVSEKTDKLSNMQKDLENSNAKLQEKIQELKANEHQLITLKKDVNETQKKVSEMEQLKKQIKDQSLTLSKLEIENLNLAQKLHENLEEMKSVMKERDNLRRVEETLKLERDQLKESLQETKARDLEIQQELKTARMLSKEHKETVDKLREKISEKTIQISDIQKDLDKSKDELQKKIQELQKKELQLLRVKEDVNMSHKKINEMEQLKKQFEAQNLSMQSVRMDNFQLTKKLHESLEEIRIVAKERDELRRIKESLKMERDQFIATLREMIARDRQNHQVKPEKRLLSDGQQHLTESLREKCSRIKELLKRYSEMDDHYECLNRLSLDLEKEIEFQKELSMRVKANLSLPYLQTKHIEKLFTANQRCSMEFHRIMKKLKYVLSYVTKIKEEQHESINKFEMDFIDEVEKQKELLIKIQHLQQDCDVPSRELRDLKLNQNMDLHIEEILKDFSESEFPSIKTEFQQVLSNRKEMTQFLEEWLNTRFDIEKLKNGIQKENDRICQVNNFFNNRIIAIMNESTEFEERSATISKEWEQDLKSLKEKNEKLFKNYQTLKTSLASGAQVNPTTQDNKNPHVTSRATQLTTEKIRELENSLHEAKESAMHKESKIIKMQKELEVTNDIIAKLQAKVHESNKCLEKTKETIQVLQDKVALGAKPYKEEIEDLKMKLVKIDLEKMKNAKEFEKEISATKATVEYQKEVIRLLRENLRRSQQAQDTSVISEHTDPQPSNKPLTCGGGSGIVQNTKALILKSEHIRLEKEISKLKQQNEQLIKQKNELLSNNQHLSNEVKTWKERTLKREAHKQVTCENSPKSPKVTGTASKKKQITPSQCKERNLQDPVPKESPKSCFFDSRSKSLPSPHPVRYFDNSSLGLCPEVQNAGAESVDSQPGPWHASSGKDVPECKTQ
T12 sequence (O43924 whole entry): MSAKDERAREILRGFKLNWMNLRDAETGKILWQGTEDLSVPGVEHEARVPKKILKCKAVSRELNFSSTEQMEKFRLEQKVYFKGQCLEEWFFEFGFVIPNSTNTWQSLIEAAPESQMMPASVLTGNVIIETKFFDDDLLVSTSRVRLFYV

As usually defined, the inhibition is the change of the read-out against control, counted positive when it falls. In general, Tmax refers to the time from dosing to the highest level. The term Vd denotes a proportionality between amount in the body and measured concentration, not a real space. In general, clearance refers to the volume of plasma or blood freed of the substance per unit of time. Read a high clearance as a high capacity for elimination. The AUC(0-inf) is total exposure, with the tail of the curve extrapolated. Read a high AUC(0-inf) as more exposure. The term AUC(0-t) denotes exposure summed from dosing to a finite time, without extrapolation to infinity. A low value points to less exposure. What is called half-life is the time in which the quantity being followed falls by half. A low value points to rapid decline. Turning to `Cc1ccc(-n2nc3c(=O)n(CCCC(=O)NCC(C)c4ccccc4)nc(C)c3c2C)cc1` (stereo not shown) [2k], the “% Inhibition of Control Specific Binding” value in data set [1] is listed as -15%. Moreover, the inhibition at 5 µM in data set [2] was 0%; in [3], -8%; in data set [8], 2%; in data set [9], -14%. The “% Inhibition of Control Values” in data set [4] is listed as 7%. In data set [5] (ip), the Tmax was 4.8 min. This molecule also had a C0 in [5] (iv) of 3380 ng/mL. The molecule also returned a Vd in data set [5] (iv) of 1.18 L/kg. The same molecule showed a clearance in data set [5] (iv) of 30.8 mL/min/kg. In data set [5] (iv, AUC 0-inf), this molecule registered an AUC(0-inf) of 1620 ng·h/mL. Further, the AUC(0-t) in data set [5] (iv, AUC 0-t) was determined as 1620 ng·h/mL. In [5] (iv, t1/2), this molecule showed a half-life of 21 min. Also, the metabolism in mice entry in data set [6] is “rapidly metabolized”. Besides, the “EGF-induced Erk phosphorylation” value in data set [7] (PANC-1, 20 μM, longer incubation times (>3 h)) is on record as “remained unaffected”; in data set [7] (PANC-1, 1 h, 5 μM Deltarasin or 20 μM Deltazinone 1, 5 min EGF), “did not significantly affect”; in [13] (20 μM, longer incubation times (>3 h)), “reduced”; in data set [13] (setting [25]), “did not significantly affect”. The “time after administration at which decreasing cell indices indicated cell death” value is ~40 h in data set [10] and ~30 h in [12] (doses higher than 3 μM). Besides, the effect on growth result in data set [11] is given as “strong growth inhibition but not cell death”. In addition, the “onset of cell death after treatment” value in data set [12] (24 μM) is listed as ~13 h.

The term IC50 denotes the concentration that gives 50% inhibition. In general, Hill coefficient refers to the slope factor of the fitted curve. Consider `c1ccc(Cn2c(-c3ccc(OC[C@H](C4CCNCC4)n4c(-c5ccccc5)nc5ccccc54)cc3)nc3ccccc32)cc1` [Deltarasin, reference compound], for which the “% Inhibition of Control Specific Binding” value in [1] is listed as -19%. Besides, the inhibition at 5 µM in [14] is 3%; in [15] it was 24%; in data set [3], -10%; in [18], 7%; in [19], 1%; in data set [20] it was 9%. Also, the inhibition at 5 µM in data set [21] is 4%; in data set [22] it was 37%; in data set [9], 21%; in data set [24] it was 6%. In addition, the IC50 was found to be 4.83 µM in data set [16] (setting [26]) and 6.67 µM in data set [17] (setting [26]). Besides, the Hill coefficient in data set [16] (Panc-Tu-I, CellTiter-Glo, n = 14) is reported as -5.3; in data set [17], -10.8. Moreover, the “interaction between mCitrine-KRas and mCherry-PDEδ” value in data set [23] is “abolished the interaction”. Moreover, the “onset of detectable cell death post treatment” value in [12] (5 μM) is given as ~9 h. Also, in data set [13] (setting [25]), the “EGF-induced Erk phosphorylation” value is “reduced”.

The values above are taken from article PMC4843002, “Identification of pyrazolopyridazinones as PDEδ inhibitors” (Nature Communications, 2016).
